Assay results published in US20230085307A1, “PYRIDAZINONE COMPOUND AND HERBICIDE” (NISSAN CHEMICAL CORPORATION, priority 2019, published 2023).

Experiments:
late watergrass = assay: Test Example 1: herbicidal activity, application before weed generation under submerged conditions (Table 16, symbol A); format: in vivo, late watergrass (Echinochloa oryzicola); conditions: for Herbicidal effect on A: late watergrass (grade 0-5): 320 g/ha applied herbicide
Summary of the method: (§1)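 Emulsion formulation, water-diluted to set dose, was put onto the flooded surface (4 cm depth, alluvial soil) the same day weeds were sown and 2.5-leaf rice transplanted. After 3 weeks at 25-30 °C under glass, each species was rated 0 (≤5% kill) to 5 (≥90% kill).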

windgrass = assay: Test Example 5: herbicidal effect by foliage application, plastic box (Table 20, symbol L); format: in vivo, windgrass (Apera spica-venti); conditions: foliage application; for herbicidal effect on L: windgrass: evaluated three weeks after application
Summary of the method: (§2)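 Plants were sown into sterilized diluvial soil under about 1.5 cm cover and kept in a greenhouse at 25° C. to 30° C. Fourteen days on, foliage received an even spray of the diluted emulsion. Herbicidal or crop effect was judged three weeks afterwards.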

southern crabgrass = assay: Test Example 5: herbicidal effect by foliage application, plastic box (Table 20, symbol F); format: in vivo, southern crabgrass (Digitaria ciliaris); conditions: foliage application; for herbicidal effect on F: southern crabgrass: evaluated three weeks after application
Summary of the method: as §2

velvetleaf = assay: Test Example 5: herbicidal effect by foliage application, plastic box (Table 20, symbol M); format: in vivo, velvetleaf (Abutilon theophrasti); conditions: foliage application; for herbicidal effect on M: velvetleaf: evaluated three weeks after application
Summary of the method: as §2

rice flat sedge = assay: Test Example 3: herbicidal effect by foliage application, Wagner pot (Table 18, symbol E); format: in vivo, rice flat sedge (Cyperus iria)
Summary of the method: (§3)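 Plants were sown in alluvial soil held under 0.1–0.5 cm standing water and grown 14 days in a greenhouse at 25–30 °C. An emulsifiable formulation, water-diluted to the set dose, was then sprayed onto the foliage, and effects were scored three weeks later using previously defined criteria.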

barnyard grass [1] = assay: Test Example 3: herbicidal effect by foliage application, Wagner pot (Table 18, symbol H); format: in vivo, barnyard grass (Echinochloa crus-galli)
Summary of the method: as §3

barnyard grass [2] = assay: Test Example 5: herbicidal effect by foliage application, plastic box (Table 20, symbol H); format: in vivo, barnyard grass (Echinochloa crus-galli); conditions: foliage application; for herbicidal effect on H: barnyard grass: evaluated three weeks after application
Summary of the method: as §2

Chinese sprangletop = assay: Test Example 3: herbicidal effect by foliage application, Wagner pot (Table 18, symbol D); format: in vivo, chinese sprangletop (Leptochloa chinensis)
Summary of the method: as §3

green foxtail = assay: Test Example 5: herbicidal effect by foliage application, plastic box (Table 20, symbol G); format: in vivo, green foxtail (Setaria viridis); conditions: foliage application; for herbicidal effect on G: green foxtail: evaluated three weeks after application
Summary of the method: as §2

blackgrass = assay: Test Example 5: herbicidal effect by foliage application, plastic box (Table 20, symbol J); format: in vivo, blackgrass (Alopecurus myosuroides); conditions: foliage application; for herbicidal effect on J: blackgrass: evaluated three weeks after application
Summary of the method: as §2

lambsquarters = assay: Test Example 5: herbicidal effect by foliage application, plastic box (Table 20, symbol O); format: in vivo, lambsquarters (Chenopodium album); conditions: foliage application; for herbicidal effect on O: lambsquarters: evaluated three weeks after application
Summary of the method: as §2

wild oat = assay: Test Example 5: herbicidal effect by foliage application, plastic box (Table 20, symbol I); format: in vivo, wild oat (Avena fatua); conditions: foliage application; for herbicidal effect on I: wild oat: evaluated three weeks after application
Summary of the method: as §2

oval-leafed pondweed = assay: Test Example 1: herbicidal activity, application before weed generation under submerged conditions (Table 16, symbol C); format: in vivo, oval-leafed pondweed (Monochoria vaginalis); conditions: for Herbicidal effect on C: oval-leafed pondweed (grade 0-5): 320 g/ha applied herbicide
Summary of the method: as §1

persian speedwell = assay: Test Example 5: herbicidal effect by foliage application, plastic box (Table 20, symbol R); format: in vivo, Persian speedwell (Veronica persica); conditions: foliage application; for herbicidal effect on R: persian speedwell: evaluated three weeks after application
Summary of the method: as §2

Japanese bulrush = assay: Test Example 1: herbicidal activity, application before weed generation under submerged conditions (Table 16, symbol B); format: in vivo, Japanese bulrush (Schoenoplectus juncoides); conditions: for Herbicidal effect on B: Japanese bulrush (grade 0-5): 320 g/ha applied herbicide
Summary of the method: as §1

chickweed = assay: Test Example 5: herbicidal effect by foliage application, plastic box (Table 20, symbol P); format: in vivo, common chickweed (Stellaria media); conditions: foliage application; for herbicidal effect on P: chickweed: evaluated three weeks after application
Summary of the method: as §2

Italian ryegrass = assay: Test Example 5: herbicidal effect by foliage application, plastic box (Table 20, symbol K); format: in vivo, Italian ryegrass (Lolium multiflorum); conditions: foliage application; for herbicidal effect on K: Italian ryegrass: evaluated three weeks after application
Summary of the method: as §2

redroot pigweed = assay: Test Example 5: herbicidal effect by foliage application, plastic box (Table 20, symbol N); format: in vivo, redroot pigweed (Amaranthus retroflexus); conditions: foliage application; for herbicidal effect on N: redroot pigweed: evaluated three weeks after application
Summary of the method: as §2

[3] = AAH 320 g/ha, three weeks after application
[4] = amount of applied herbicide 320 g/ha
[5] = 320 g/ha, three weeks after application

Structure (SMILES)	Herbicidal effect on A: late watergrass (grade 0-5) (late watergrass)	herbicidal effect on E (rice flat sedge), rating 0-5 (rice flat sedge; 320 g/ha)	herbicidal effect on H (barnyard grass), rating 0-5 (barnyard grass [1]; 320 g/ha)	herbicidal effect on D (Chinese sprangletop), rating 0-5 (Chinese sprangletop; 320 g/ha)	Herbicidal effect on C: oval-leafed pondweed (grade 0-5) (oval-leafed pondweed)	Herbicidal effect on B: Japanese bulrush (grade 0-5) (Japanese bulrush)	herbicidal effect on L: windgrass (windgrass; 320 g/ha)	herbicidal effect on F: southern crabgrass (southern crabgrass; 320 g/ha)	herbicidal effect on M: velvetleaf (velvetleaf; 320 g/ha)	herbicidal effect on H: barnyard grass (barnyard grass [2]; 320 g/ha)	herbicidal effect on G: green foxtail (green foxtail; 320 g/ha)	herbicidal effect on J: blackgrass (blackgrass; 320 g/ha)	herbicidal effect on O: lambsquarters (lambsquarters; 320 g/ha)	herbicidal effect on I: wild oat (wild oat; 320 g/ha)	herbicidal effect on R: persian speedwell (persian speedwell; 320 g/ha)	herbicidal effect on P: chickweed (chickweed; 320 g/ha)	herbicidal effect on K: Italian ryegrass (Italian ryegrass; 320 g/ha)	herbicidal effect on N: redroot pigweed (redroot pigweed; 320 g/ha)	also measured
COc1cccc(Cl)c1-c1sc2ccccc2c1-c1c(O)c(C)nn(C)c1=O [1-159]	2 (Herbicidal rate of 20% or more and less than 40%)	0 (Herbicidal rate of 5% or less (almost no effect))	2 (Herbicidal rate of 20% or more and less than 40%)	0 (Herbicidal rate of 5% or less (almost no effect))	0 (Herbicidal rate of 5% or less (almost no effect))	0 (Herbicidal rate of 5% or less (almost no effect))													L: windgrass, herbicidal effect (windgrass; [3]): 0 (Herbicidal rate of 5% or less (almost no effect)); F: southern crabgrass, herbicidal effect (southern crabgrass; [3]): 0 (Herbicidal rate of 5% or less (almost no effect)); M: velvetleaf, herbicidal effect (velvetleaf; [3]): 0 (Herbicidal rate of 5% or less (almost no effect)); H: barnyard grass, herbicidal effect (barnyard grass [2]; [3]): 0 (Herbicidal rate of 5% or less (almost no effect)); G: green foxtail, herbicidal effect (green foxtail; [3]): 0 (Herbicidal rate of 5% or less (almost no effect)); J: blackgrass, herbicidal effect (blackgrass; [3]): 0 (Herbicidal rate of 5% or less (almost no effect)); O: lambsquarters, herbicidal effect (lambsquarters; [3]): 0 (Herbicidal rate of 5% or less (almost no effect)); I: wild oat, herbicidal effect (wild oat; [3]): 0 (Herbicidal rate of 5% or less (almost no effect)); R: persian speedwell, herbicidal effect (persian speedwell; [3]): 5 (Herbicidal rate of 90% or more (almost completely withered)); P: chickweed, herbicidal effect (chickweed; [3]): 5 (Herbicidal rate of 90% or more (almost completely withered)); K: Italian ryegrass, herbicidal effect (Italian ryegrass; [3]): 0 (Herbicidal rate of 5% or less (almost no effect)); N: redroot pigweed, herbicidal effect (redroot pigweed; [3]): 0 (Herbicidal rate of 5% or less (almost no effect))
COCCOCOc1c(C)nn(C)c(=O)c1-c1c(-c2ccc(OCC(=O)OC)cc2)sc2ccc(F)cc12 [2-071]	3 (Herbicidal rate of 40% or more and less than 70%)	2 (Herbicidal rate of 20% or more and less than 40%)	2 (Herbicidal rate of 20% or more and less than 40%)	3 (Herbicidal rate of 40% or more and less than 70%)	0 (Herbicidal rate of 5% or less (almost no effect))	0 (Herbicidal rate of 5% or less (almost no effect))	0 (Herbicidal rate of 5% or less (almost no effect))	0 (Herbicidal rate of 5% or less (almost no effect))	0 (Herbicidal rate of 5% or less (almost no effect))	0 (Herbicidal rate of 5% or less (almost no effect))	0 (Herbicidal rate of 5% or less (almost no effect))	0 (Herbicidal rate of 5% or less (almost no effect))	3 (Herbicidal rate of 40% or more and less than 70%)	0 (Herbicidal rate of 5% or less (almost no effect))	0 (Herbicidal rate of 5% or less (almost no effect))	3 (Herbicidal rate of 40% or more and less than 70%)	0 (Herbicidal rate of 5% or less (almost no effect))	4 (Herbicidal rate of 70% or more and less than 90%)	
CCCC(=O)Oc1c(C)nn(C)c(=O)c1-c1c(-c2ccc(Oc3ccccc3)cc2)sc2ccc(F)cc12 [2-073]	3 (Herbicidal rate of 40% or more and less than 70%)	3 (Herbicidal rate of 40% or more and less than 70%)	4 (Herbicidal rate of 70% or more and less than 90%)	3 (Herbicidal rate of 40% or more and less than 70%)	0 (Herbicidal rate of 5% or less (almost no effect))	0 (Herbicidal rate of 5% or less (almost no effect))	0 (Herbicidal rate of 5% or less (almost no effect))	0 (Herbicidal rate of 5% or less (almost no effect))	3 (Herbicidal rate of 40% or more and less than 70%)	1 (Herbicidal rate of 5% or more and less than 20%)	2 (Herbicidal rate of 20% or more and less than 40%)	0 (Herbicidal rate of 5% or less (almost no effect))	3 (Herbicidal rate of 40% or more and less than 70%)	0 (Herbicidal rate of 5% or less (almost no effect))	4 (Herbicidal rate of 70% or more and less than 90%)	5 (Herbicidal rate of 90% or more (almost completely withered))	0 (Herbicidal rate of 5% or less (almost no effect))	3 (Herbicidal rate of 40% or more and less than 70%)	
COc1ccc(Br)cc1-c1sc2ccc(Br)cc2c1-c1c(O)c(C)nn(C)c1=O [2-129]	5 (Herbicidal rate of 90% or more (almost completely withered))				0 (Herbicidal rate of 5% or less (almost no effect))	0 (Herbicidal rate of 5% or less (almost no effect))	0 (Herbicidal rate of 5% or less (almost no effect))	0 (Herbicidal rate of 5% or less (almost no effect))	0 (Herbicidal rate of 5% or less (almost no effect))	0 (Herbicidal rate of 5% or less (almost no effect))	0 (Herbicidal rate of 5% or less (almost no effect))	0 (Herbicidal rate of 5% or less (almost no effect))	2 (Herbicidal rate of 20% or more and less than 40%)	0 (Herbicidal rate of 5% or less (almost no effect))	0 (Herbicidal rate of 5% or less (almost no effect))	0 (Herbicidal rate of 5% or less (almost no effect))	0 (Herbicidal rate of 5% or less (almost no effect))	0 (Herbicidal rate of 5% or less (almost no effect))	herbicidal effect on E: rice flat sedge (rice flat sedge; [4]): 0 (Herbicidal rate of 5% or less (almost no effect)); herbicidal effect on H: barnyard grass (barnyard grass [1]; [4]): 3 (Herbicidal rate of 40% or more and less than 70%); herbicidal effect on D: Chinese sprangletop (Chinese sprangletop; [4]): 0 (Herbicidal rate of 5% or less (almost no effect))
COc1ccccc1-c1sc2cc(CO)ccc2c1-c1c(O)c(C)nn(C)c1=O [3-135]																			Herbicidal effect, A: late watergrass (late watergrass; [4]): 2 (Herbicidal rate of 20% or more and less than 40%); L: windgrass, herbicidal effect grade (windgrass; [5]): 2 (Herbicidal rate of 20% or more and less than 40%); F: southern crabgrass, herbicidal effect grade (southern crabgrass; [5]): 4 (Herbicidal rate of 70% or more and less than 90%); M: velvetleaf, herbicidal effect grade (velvetleaf; [5]): 3 (Herbicidal rate of 40% or more and less than 70%); herbicidal effect on rice flat sedge (E) (rice flat sedge; 320 g/ha): 2 (Herbicidal rate of 20% or more and less than 40%); herbicidal effect on barnyard grass (H) (barnyard grass [1]; 320 g/ha): 4 (Herbicidal rate of 70% or more and less than 90%); H: barnyard grass, herbicidal effect grade (barnyard grass [2]; [5]): 3 (Herbicidal rate of 40% or more and less than 70%); herbicidal effect on Chinese sprangletop (D) (Chinese sprangletop; 320 g/ha): 3 (Herbicidal rate of 40% or more and less than 70%); G: green foxtail, herbicidal effect grade (green foxtail; [5]): 5 (Herbicidal rate of 90% or more (almost completely withered)); J: blackgrass, herbicidal effect grade (blackgrass; [5]): 3 (Herbicidal rate of 40% or more and less than 70%); O: lambsquarters, herbicidal effect grade (lambsquarters; [5]): 2 (Herbicidal rate of 20% or more and less than 40%); I: wild oat, herbicidal effect grade (wild oat; [5]): 4 (Herbicidal rate of 70% or more and less than 90%); Herbicidal effect, C: oval-leafed pondweed (oval-leafed pondweed; [4]): 0 (Herbicidal rate of 5% or less (almost no effect)); R: persian speedwell, herbicidal effect grade (persian speedwell; [5]): 4 (Herbicidal rate of 70% or more and less than 90%); Herbicidal effect, B: Japanese bulrush (Japanese bulrush; [4]): 2 (Herbicidal rate of 20% or more and less than 40%); P: chickweed, herbicidal effect grade (chickweed; [5]): 4 (Herbicidal rate of 70% or more and less than 90%); K: Italian ryegrass, herbicidal effect grade (Italian ryegrass; [5]): 3 (Herbicidal rate of 40% or more and less than 70%); N: redroot pigweed, herbicidal effect grade (redroot pigweed; [5]): 4 (Herbicidal rate of 70% or more and less than 90%)
